# Experimental data: US7115592B2, “Phosphonate substituted pyrimidine compounds and methods for therapy” (priority 2003, dated 2006)
# Marks after values point to notes of the source that are not given here.
# Key:
# [1] = system: MSV-induced tumor cell formation; assay: Inhibitory activity against MSV-induced tumor cell formation in newborn NMRI mice; type: in vivo; conditions: for Mean day of animal death / Mean day of tumor initiation / % survivors on day 12 / % tumor free on day 12: virus i.m. at day 1; for order of antiviral efficacy: among the 5-cyano, 5-chloro and 5-methyl derivatives; for tumor formation: at 50 and 20 mg/kg
# Description: The 5-cyano (Example 8), 5-methyl (Example 5) and 5-chloro-2,4-diamino-6-[2-(phosphonomethoxy)ethoxy]pyrimidine were also evaluated for their antiretroviral activity in MSV-infected newborn NMRI mice in comparison with PMEA and (R)-PMPA. […] At 5 mg/kg, 90% of mice were free from tumor formation in the presence of 5-methyl derivative, compared with 70% and 10% in the presence of PMEA and (R)-PMPA. […] This phenomenon was also seen with PMEA at 50 and 20 mg/kg, but not with (R)-PMPA at 50 mg/kg.
# Inhibitory activity of test compounds against MSV-induced tumor cell formation in newborn NMRI mice
# HIV = assay: microbe, parasite or virus in culture; type: cell-based; conditions: for EC50: Human immunodeficiency virus 1, HIV type not specified, read-out: inhibitory against HIV at
# MSV = assay: Antiviral activity against MSV in cell culture; type: cell-based, murine (MSV); conditions: Mus musculus; in vitro; read-out: inhibitory against MSV (EC50)
# HIV-1 = assay: microbe, parasite or virus in culture; type: cell-based; conditions: Human immunodeficiency virus 1; read-out: EC50 against HIV-1
# HIV-2 = assay: microbe, parasite or virus in culture; type: cell-based; conditions: Human immunodeficiency virus 2; read-out: EC50 against HIV-2
# VZV = assay: Anti-VZV activity; type: cell-based
# [2] = Cytostatic activity in CEM cell cultures; conditions: human
Compound,melting point,Mean day of animal death ([1]; 5 mg/kg i.p. at days 1-5),Mean day of tumor initiation ([1]; 5 mg/kg i.p. at days 1-5),% survivors on day 12 ([1]; 20 mg/kg i.p. at days 1-5),Mean day of animal death ([1]; 20 mg/kg i.p. at days 1-5),Mean day of tumor initiation ([1]; 20 mg/kg i.p. at days 1-5),Mean day of animal death ([1]; 50 mg/kg i.p. at days 1-5),Mean day of tumor initiation ([1]; 50 mg/kg i.p. at days 1-5),other results
CCOC(=O)Cc1c(N)nc(N)nc1OCCOCP(=O)(O)O,199 to 200 °C,,,,,,,,
Nc1nc(N)c(Cc2ccccc2)c(OCCOCP(=O)(O)O)n1 (hydrate or solvate),241 to 242 °C,,,,,,,,
"N#Cc1c(N)nc(N)nc1OCCOCP(=O)(O)O [Example 8, 5-Cyano-2,4-diamino-6-[2-(phosphonomethoxy)ethoxy]pyrimidine]",,10.9 ± 0.57 days,6.40 ± 0.70 days,(60%),11.5 ± 0.58 days,7.20 ± 1.03 days,> 12 days,8.20 ± 1.62 days,% survivors on day 12 ([1]; 50 mg/kg i.p. at days 1-5): 100%; order of antiviral efficacy [1]: least effective agent; EC50 (HIV): 0.8 to 3.3 µg/mL; EC50 (MSV): 2.7 to 6 µg/mL
"Nc1nc(N)c(C=O)c(OCCOCP(=O)(O)O)n1 [Example 9, 5-Formyl-2,4-diamino-6-[2-(phosphonomethoxy)ethoxy]pyrimidine]",,,,,,,,,EC50 (HIV): 0.8 to 3.3 µg/mL; EC50 (MSV): 2.7 to 6 µg/mL
C[C@H](Cn1cnc2c(N)ncnc21)OCP(=O)(O)O [(R)-PMPA],,> 12 days,10.5 ± 2.12 days,100%,> 12 days,> 12 days,> 12 days,> 12 days,% survivors on day 12 ([1]; 5 mg/kg i.p. at days 1-5): 100%; % tumor free on day 12 ([1]; 5 mg/kg i.p. at days 1-5): 10%; % tumor free on day 12 ([1]; 20 mg/kg i.p. at days 1-5): 100%; % survivors on day 12 ([1]; 50 mg/kg i.p. at days 1-5): 100%; % tumor free on day 12 ([1]; 50 mg/kg i.p. at days 1-5): 100%; tumor formation [1]: completely prevented
"Cc1c(N)nc(N)nc1OCCOCP(=O)(O)O [Example 5, 5-Methyl-2,4-diamino-6-[2-(phosphonomethoxy)ethoxy]pyrimidine]",,> 12 days,8.0 days,100%,> 12 days,> 12 days,10.1 ± 1.10^b day,> 12 days,"EC50 (HIV-1): 0.065 µg/mL; EC50 (HIV-2): 0.065 µg/mL; anti-VZV activity (VZV): moderate anti-VZV activity; % survivors on day 12 ([1]; 5 mg/kg i.p. at days 1-5): 100%; % tumor free on day 12 ([1]; 5 mg/kg i.p. at days 1-5): 90%; % tumor free on day 12 ([1]; 20 mg/kg i.p. at days 1-5): 100%; % tumor free on day 12 ([1]; 50 mg/kg i.p. at days 1-5): 100%; Mean day of animal death ([1]; 50 mg/kg i.p. at days 1-5, listed as 5-methyl-2,4-diamino-6-[2-(phosphonomethoxy)ethoxy]pyrimidine): 10.1 days; order of antiviral efficacy [1]: most effective agent; tumor formation [1]: completely prevented; CC50 [2]: 1.3 to 4.1 µg/mL; EC50 (MSV): 0.04 to 0.06 µg/mL"
Nc1nc(N)c(C2CC2)c(OCCOCP(=O)(O)O)n1,255 to 256 °C,,,,,,,,
"Nc1nc(N)c(Cl)c(OCCOCP(=O)(O)O)n1 [Example 5-Cl, 5-chloro-2,4-diamino-6-[2-(phosphonomethoxy)ethoxy]pyrimidine]",,11.5 ± 0.69 days,6.70 ± 0.80 days,(80%),11.8 ± 0.50 days,7.44 ± 1.42 days,> 12 days,8.76 ± 1.86 days,% survivors on day 12 ([1]; 5 mg/kg i.p. at days 1-5): (45%); % tumor free on day 12 ([1]; 20 mg/kg i.p. at days 1-5): 10%; % survivors on day 12 ([1]; 50 mg/kg i.p. at days 1-5): 100%; % tumor free on day 12 ([1]; 50 mg/kg i.p. at days 1-5): 15%
"Nc1ncnc2c1ncn2CCOCP(=O)(O)O [PMEA, 9-(2-phosphonylmethoxyethyl)adenine]",,> 12 days,9.33 ± 0.58 days,90%,9.0 days,> 12 days,8.80 ± 0.63^b day,> 12 days,% survivors on day 12 ([1]; 5 mg/kg i.p. at days 1-5): 100%; % tumor free on day 12 ([1]; 5 mg/kg i.p. at days 1-5): 70%; % tumor free on day 12 ([1]; 20 mg/kg i.p. at days 1-5): 100%; % tumor free on day 12 ([1]; 50 mg/kg i.p. at days 1-5): 100%; tumor formation [1]: completely prevented; CC50 [2]: 11 µg/mL
"Nc1cc(OCCOCP(=O)(O)O)nc(N)n1 [5-unsubstituted compound, 2,4-diamino-6-[2-(phosphonomethoxy)ethoxy]pyrimidine, reference compound]",,,,,,,,,anti-HIV activity less potent than anti-MSV activity (HIV; ratio of anti-HIV to anti-MSV potency): 20 fold
"Nc1nc(N)c(C=O)c(OCCOCP(=O)(O)O)n1 (hydrate or solvate) [Example 9, 5-Formyl-2,4-diamino-6-[2-(phosphonomethoxy)ethoxy]pyrimidine]",225 to 227 °C,,,,,,,,
Nc1nc(N)c(CC(=O)O)c(OCCOCP(=O)(O)O)n1 (hydrate or solvate),228 to 229 °C,,,,,,,,
Nc1nc(N)c(-c2ccccc2)c(OCCOCP(=O)(O)O)n1 (hydrate or solvate),230 to 231 °C,,,,,,,,
N#CCc1c(N)nc(N)nc1OCCOCP(=O)(O)O,258 to 259 °C (dec.),,,,,,,,
